System: GM-CSF-producing CD4-positive memory T-cells
Assay: GM-CSF-producing CD4-positive memory T-cells in PBMCs of normal subjects after single oral dose (FACS)
Type: in vivo, human
Protocol: A single dose of compound 31, which is a synthetic glycolipid of the present invention, described in the first aspect, i.e., (2S,3S,4R)-1-O-(α-D-galactosyl)-2-(N-tetracosanoylamino)-1,3,4-nonanetriol represented by the following formula (III), was orally administered to each of subjects of 4 cohorts (A, B, C, and D cohorts) each consisting of 3 normal subjects shown in Table 1 above after obtainment of informed consent.
The dose was set to 0.3 mg per person for A cohort, 1 mg per person for B cohort, 3 mg per person for C cohort, and 10 mg per person for D cohort.
Subsequently, T-cell subfractions were prepared from the peripheral blood of each subject by using the density gradient centrifugation method. First, a total of 20 mL of blood was collected from the vein of each subject 24 hours (1st day), 48 hours (2nd day), 72 hours (3rd day), and 168 hours (7th day) after the administration of compound 31 by using two 10-mL heparin sodium-containing vacuum blood collection tubes. For a control, 20 mL of blood was similarly collected from the vein of each subject one day before the administration of compound 31.
Next, 4 mL of Ficoll-Paque Plus (GE Healthcare Biosciences Corp.) was placed in each of four 15-mL conical tubes, and 10 mL of blood diluted twice with phosphate buffered saline (PBS) was gently layered thereon. Then, density gradient centrifugation was performed by centrifugation at 1800 rpm at ordinary temperature for 30 minutes. After the centrifugation, a supernatant containing plasma and platelet was discarded, and lymphocytes present at the boundary layer between the supernatant layer and the Ficoll-Paque Plus layer were recovered into a fresh 50-mL conical tube. The 50-mL conical tube was filled by adding PBS thereto, followed by centrifugation at 1800 rpm at ordinary temperature for 5 minutes. […] After a supernatant was removed by suction again, a single cell suspension was prepared by adding 1 mL of AIM-V medium (Life Technologies Corp.), and then, the number of cells was measured with a counting chamber. […]

CCCCCCCCCCCCCCCCCCCCCCCC(=O)NC(COC1OC(CO)C(O)C(O)C1O)[C@H](O)C(O)CCCCC (stereo in doubt) [compound 31, (2S,3S,4R)-1-O-(α-D-galactosyl)-2-(N-tetracosanoylamino)-1,3,4-nonanetriol]
suppressive effects on CD4-positive memory T-cells (A cohort, 0.3 mg single oral (low dose)): high suppressive effects | growth of GM-CSF-producing CD4-positive memory T-cells (C and D cohorts (3 mg, 10 mg), 1 day after administration, transient): promoted | proportion of GM-CSF-producing CD4-positive memory T-cells in PBMCs (single oral dose, all cohorts (0.3, 1, 3, 10 mg), after administration vs pre-administration value (day-1)): decreased
